Measurements taken from patent US8404664B2, “Phosphonated Rifamycins and uses thereof for the prevention and treatment of bone and joint infections” (Targanta Therapeutics, Inc., priority 2005, dated 2013).
Converted amounts (≈) assume the structure as drawn. Marks after values point to notes of the source that are not given here.

Legend:
[1] = test system: E. coli LBB925 (tolC mutant); experiment: Antibacterial susceptibility (MIC), NCCLS broth microdilution; type: cell-based; details: for Minimum inhibitory concentration, E. coli LBB925: tolC mutant; for MIC: Escherichia coli, read-out: Minimum inhibitory concentration, E. coli LBB925
[2] = Regeneration of drug from bone powder-bound prodrug; type: in vitro ADME; details: for % Conversion of bone-bound prodrug to parent drug: 24 h incubation, 37° C.; for Impact of the medium on the rate of regeneration of parent drug (in words): serum compared to PBS
Experimental: Amounts of parent drug “regenerated” from the phosphonated prodrug were measured as follows. Washed bone powder-bound prodrugs from the above experiment were resuspended in 400 μL PBS+2% DMSO or in 400 μL 50% (v/v in PBS+2% DMSO) human or rat serum. The suspension was incubated overnight at 37° C., centrifuged at 13,000 rpm for 2 min and the supernatant was recovered. The amount of regenerated parent drug in the supernatant was determined by measurements using the microbiological assay that was previously described for the prodrugs themselves. The amount of prodrug was deduced from standard curves of known amounts of parent drug that were used as reference for each experiment.

[3] = test system: S. aureus ATCC 13709 Novobiocin and Rifampicin resistant variant; experiment: microbe, parasite or virus in culture; type: cell-based; details: for MIC: Staphylococcus aureus, ATCC13709, read-out: Minimum inhibitory concentration, S. aureus ATCC 13709 variant
Experimental: (§1) Susceptibility of S. aureus strains to the known antibiotics and synthesized compounds was determined by following the guidelines set by NCCLS (M26-A). Compounds were diluted two-fold serially in DMSO and transferred to cation-adjusted Mueller Hinton broth (CAMHB; Becton Dickinson). 50 μL of compounds diluted in CAMHB was mixed with 100 μL of bacteria diluted in CAMHB in 96-well microtiter plates. The final concentration of micro-organisms in the assay was 5×10^5 c.f.u. per mL and the final concentration of DMSO in the assay was 1.25%. Assays were set up in duplicate and incubated at 37° C. for 18 h. The lowest concentration of compound that inhibited visible growth was reported as the minimum inhibitory concentration (MIC).

S. aureus ATCC 13709 [4] = experiment: Antibacterial susceptibility (MIC) in the presence of serum; type: cell-based; details: for MIC: Staphylococcus aureus, ATCC13709, 18 h
Experimental: as §1
Susceptibility testing experiments were also carried out in the presence of serum.
These experiments were carried out similar to the susceptibility testing with the following modifications. 75 μL of compounds diluted in CAMHB was mixed with 75 μL of bacteria diluted in 100% serum from any given source (commercial pooled mouse serum (MS) and human serum (HS), Equitech-Bio Inc.) or diluted in 8% purified human serum albumin (HSA) (Calbiochem). The final concentration of animal serum in the assay was 50% and the final concentration of purified human serum albumin in the assay was 4%; the concentrations of all other components were identical to those described for susceptibility testing.

[5] = test system: S. aureus ATCC 13709 Novobiocin resistant mutant (bone infection); experiment: Prophylactic efficacy in rat model of S. aureus bone infection; type: in vivo; details: for Measured bacterial titer: rat tibia 24 h postinfection
Experimental: Specifically, a spontaneous Novobiocin resistant mutant strain of S. aureus ATCC 13709 (a clinical osteomyelitis isolate), was grown overnight at 37° C. in brain heart infusion broth (BHIB). After 16 h of growth, cells were subcultured into fresh BHIB and incubated for 4 to 5 h at 37° C. The cells were washed twice with phosphate-buffered saline (PBS) and resuspended in BHIB supplemented with 10% (vol./vol.) fetal bovine serum at a density of approximately 10^10 colony forming units (CFU)/ml (based upon turbidimetry). The suspension was aliquoted and a portion was used to check the CFU count. The culture was stored frozen (−80° C.) and was used without subculture. For use as an inoculum the culture was thawed, diluted in PBS and kept in an ice bath until it was used.
Animals were infected as described by O'Reilly et al. (Antimicrobial Agents and Chemotherapy (1992), 36(12): 2693-97) to generate the bone infection. Female CD rats (age, 57 to 70 days; n=5/group; Charles River, St-Constant, Canada) were anaesthetized by isofluorane before and during the surgery. Following complete induction of anesthesia, the rat was placed ventral side up and hair was shaved from the surgical site. The skin over the leg was cleaned and disinfected (proviodine-ethanol 70%). A longitudinal incision below the knee joint was made in the sagital plane. The incision was made over the bone below the “knee joint” (tibia head or condyle) but not completely extending to the ankle. A high speed drill fitted with a 2 mm bulb bit was used to drill a hole into the medullar cavity of the tibia. Rats were injected intra-tibially with 0.05 ml 5% sodium morrhuate (sclerosing agent) and then with 0.05 ml of S. aureus suspension (ca. 2×10^7 CFU/rat). The hole was sealed by applying a small amount of dry dental cement which immediately absorbs fluids and adheres to the site. The wound was closed using 3 metal skin clips. Moxifloxacin (as a positive control) was injected once at 10 mg/kg intravenously 1 h postinfection in saline, while the Rifamycin derived prodrugs (prepared in 0.9% saline) were injected at the dose indicated in Table 3 as a single intravenous bolus at different time points prior to the infection.
Infected rats were sacrificed by CO2 asphyxiation 24 h postinfection to monitor the bacterial CFU count. Infected tibiae were removed, dissected free of soft tissue, and weighed. The bones were ground, resuspended in 5 ml 0.9% NaCl, serially diluted and processed for quantitative cultures. For compounds 50, 68 and 81, 1 ml of the 0.9% NaCl solution was added to 50 mg of charcoal before serial dilutions. Treatment efficacy was measured in terms of Log viable bacteria (Log CFU per gram of bone). […] The limit of detection is 2 Log CFU. […] Differences were considered significant when the P value was <0.05 when comparing treated infected animals to the untreated infected ones. The doses used, the amount of time separating the treatment from the time of infection and the treatment outcomes are shown in Table 3.

S. aureus RN4220 = experiment: Antibacterial susceptibility (MIC), NCCLS broth microdilution; type: cell-based; details: CAMHB, 37° C., 18 h; for MIC: Staphylococcus aureus, RN4220, read-out: Minimum inhibitory concentration, S. aureus RN4220
Experimental: as §1

S. aureus ATCC 13709 [6] = experiment: as above; type: cell-based; details: for MIC: Staphylococcus aureus, ATCC13709, read-out: Minimum inhibitory concentration, S. aureus ATCC 13709
Experimental: as §1

[7] = test system: S. aureus BK85 (Fluoroquinolone resistant MRSA); experiment: as above; type: cell-based; details: for MIC: Staphylococcus aureus, read-out: Minimum inhibitory concentration, S. aureus BK85
Experimental: as §1

[8] = test system: S. aureus ATCC 43300 (Fluoroquinolone sensitive MRSA); experiment: as above; type: cell-based; details: for MIC: Staphylococcus aureus, read-out: Minimum inhibitory concentration, S. aureus ATCC 43300
Experimental: as §1

[9] = single dose 20 mg/kg parent drug equivalent, 3 days prior to infection
[10] = read-out: Minimum inhibitory concentration, S. aureus ATCC 13709 + 50% Human Serum
[11] = read-out: Minimum inhibitory concentration, S. aureus ATCC 13709 + 50% Mouse Serum
[12] = read-out: Minimum inhibitory concentration, S. aureus ATCC 13709 + 50% Rat Serum

Compound | Minimum inhibitory concentration, E. coli LBB925 [1] [µg/mL] | % Conversion of bone-bound prodrug to parent drug ([2]; 50% Rat Serum) [%] | % Conversion of bone-bound prodrug to parent drug ([2]; PBS) | Impact of the medium on the rate of regeneration of parent drug (in words) [2] | Measured bacterial titer [5, 9] | Minimum inhibitory concentration, S. aureus RN4220 (S. aureus RN4220) [µg/mL] | Minimum inhibitory concentration, S. aureus ATCC 13709 (S. aureus ATCC 13709 [6]) [µg/mL] | Minimum inhibitory concentration, S. aureus BK85 [7] [µg/mL] | Minimum inhibitory concentration, S. aureus ATCC 43300 [8] [µg/mL] | MIC [1] [µg/mL] | MIC [3] [µg/mL] | MIC (S. aureus ATCC 13709 [4]; [10]) [µg/mL] | MIC (S. aureus ATCC 13709 [4]; [11]) [µg/mL] | MIC (S. aureus ATCC 13709 [4]; [12]) [µg/mL] | MIC (S. aureus RN4220) [µg/mL] | MIC (S. aureus ATCC 13709 [6]) [µg/mL] | MIC [7] [µg/mL] | MIC [8] [µg/mL] | also measured
CCN(CC)CC.CCN(CC)CC.CO[C@H]1/C=C/O[C@@]2(C)Oc3c(C)c(O)c4c(c3C2=O)C2=NC3(CCN(CC(C)C)CC3)N(C(=O)OCOC(=O)CCCC(P(=O)(O)O)P(=O)(O)O)C2=C(NC(=O)/C(C)=C\C=C\[C@H](C)[C@H](O)[C@@H](C)[C@@H](O)[C@@H](C)[C@H](OC(C)=O)[C@@H]1C)C4=O [Compound 50] | 16 | 2.68 | 2.65% | not significantly impacted | 6.31 ± 0.82 Log CFU/g of bone | 0.25 | 0.25 | 0.25 | 0.25 |  |  |  |  |  |  |  |  |  | Activity against the Rifampicin resistant variant of S. aureus ATCC13709 (in words) [3]: complete lack of activity; Minimum inhibitory concentration, S. aureus ATCC 13709 variant ([3]; Novobiocin and Rifampicin resistant variant): >128 µg/mL; Impact of serum on the MICs (in words) (S. aureus ATCC 13709 [4]): no impact; Minimum inhibitory concentration, S. aureus ATCC 13709 + 50% Human Serum (S. aureus ATCC 13709 [4]; 50% Human Serum): 0.125 µg/mL; Minimum inhibitory concentration, S. aureus ATCC 13709 + 50% Mouse Serum (S. aureus ATCC 13709 [4]; 50% Mouse Serum): 0.125 µg/mL; Minimum inhibitory concentration, S. aureus ATCC 13709 + 50% Rat Serum (S. aureus ATCC 13709 [4]; 50% Rat Serum): 0.032 µg/mL
CO[C@H]1/C=C/O[C@@]2(C)Oc3c(C)c(O)c4c(=O)c(c5oc6cc(N7CCN(CC(C)C)CC7)cc(O)c6nc-5c4c3C2=O)NC(=O)/C(C)=C\C=C\[C@H](C)[C@H](O)[C@@H](C)[C@@H](O)[C@@H](C)[C@H](OC(C)=O)[C@@H]1C [Rifalazil, 1′,4-Didehydro-1-deoxy-1,4-dihydro-3′-hydroxy-5′-[4-(2-methylpropyl)-1-piperazinyl]-1-oxorifamycin VIII, reference compound] |  |  |  |  | 4.08 ± 1.53^a Log CFU/g of bone |  |  |  |  | 16 (≈ 17000 nM) | 16 (≈ 17000 nM) | 0.032 | 0.032 | 0.0078 | 0.00048 (≈ 0.51 nM) | 0.001 (≈ 1.06 nM) | 0.001 (≈ 1.06 nM) | 0.001 (≈ 1.06 nM) | Measured bacterial titer ([5]; single dose 10 mg/kg parent drug equivalent, 3 days prior to infection): 2.21 ± 0.34 Log CFU/g of bone
CO[C@H]1/C=C/O[C@@]2(C)Oc3c(C)c(O)c4c(c3C2=O)C2=NC3(CCN(CC(C)C)CC3)NC2=C(NC(=O)/C(C)=C\C=C\[C@H](C)[C@H](OC(=O)CNC(=O)CC(P(=O)(O)O)P(=O)(O)O)[C@@H](C)[C@@H](O)[C@@H](C)[C@H](OC(C)=O)[C@@H]1C)C4=O [Compound 21, 21-O-(N-(3,3-Bisphosphonopropanoyl)-glycinoyl)-1′,4-didehydro-1-deoxy-1,4-dihydro-5′-(2-methylpropyl)-1-oxorifamycin XIV] | >128 | 0.02 | <lod | not significantly impacted |  | 32 (≈ 28600 nM) | 16 (≈ 14300 nM) | 16 (≈ 14300 nM) | 16 (≈ 14300 nM) |  |  |  |  |  |  |  |  |  | Regeneration of parent drug once bound to bone (in words) [2]: not able to regenerate; Prophylactic effect (in words) ([5]; rat bone infection, doses and times of Table 3, t-test p<0.05): lacks efficacy; Measured bacterial titer ([5]; single dose 12 mg/kg parent drug equivalent, 1 day prior to infection): 6.59 ± 0.90 Log CFU/g of bone
CO[C@H]1/C=C/O[C@@]2(C)Oc3c(C)c(O)c4c(=O)c(c5oc6cc(N7CCC(O)CC7)cc(O)c6nc-5c4c3C2=O)NC(=O)/C(C)=C\C=C\[C@H](C)[C@H](O)[C@@H](C)[C@@H](O)[C@@H](C)[C@H](OC(C)=O)[C@@H]1C [Compound 63, 1′,4-Didehydro-1-deoxy-1,4-dihydro-3′-hydroxy-5′-[4-hydroxy-1-piperidinyl]-1-oxorifamycin VIII] |  |  |  |  | 2.84 ± 0.93 Log CFU/g of bone |  |  |  |  | 8 (≈ 8890 nM) | 2 (≈ 2220 nM) | 0.0078 | 0.0156 | 0.032 | 0.00048 (≈ 0.533 nM) | 0.00048 (≈ 0.533 nM) | 0.00048 (≈ 0.533 nM) | 0.00048 (≈ 0.533 nM) | 
